Series [1] addresses acetylcholinesterase (AChE) (Electrophorus electricus, UniProt O42275). The note with it: for IC50: estimated from Fig. 1.
Series [2] has as its system Artemia salina. The experiment in a line: Toxicology assay on Artemia salina model. The note with it: for Mortality of A. salina: 24 h.
The subject of series [3] is Artemia salina. The note with it: in vivo; cited from earlier work.
Series [4] concerns AChE. The note with it: cited from earlier work.
For series [5], the system named is AChE. The note with it: cited from earlier work. This is another data set of the same source.
The test system of series [6] is AChE. The note with it: cited from earlier work. This is another data set of the same source.

“And” between values parts separate entries of the source, which are not always exact repeats. Equal values may be shown once. Read-outs that look alike come from different tables or passages of the source.

acetylcholinesterase (AChE), sequence (O42275 24-633): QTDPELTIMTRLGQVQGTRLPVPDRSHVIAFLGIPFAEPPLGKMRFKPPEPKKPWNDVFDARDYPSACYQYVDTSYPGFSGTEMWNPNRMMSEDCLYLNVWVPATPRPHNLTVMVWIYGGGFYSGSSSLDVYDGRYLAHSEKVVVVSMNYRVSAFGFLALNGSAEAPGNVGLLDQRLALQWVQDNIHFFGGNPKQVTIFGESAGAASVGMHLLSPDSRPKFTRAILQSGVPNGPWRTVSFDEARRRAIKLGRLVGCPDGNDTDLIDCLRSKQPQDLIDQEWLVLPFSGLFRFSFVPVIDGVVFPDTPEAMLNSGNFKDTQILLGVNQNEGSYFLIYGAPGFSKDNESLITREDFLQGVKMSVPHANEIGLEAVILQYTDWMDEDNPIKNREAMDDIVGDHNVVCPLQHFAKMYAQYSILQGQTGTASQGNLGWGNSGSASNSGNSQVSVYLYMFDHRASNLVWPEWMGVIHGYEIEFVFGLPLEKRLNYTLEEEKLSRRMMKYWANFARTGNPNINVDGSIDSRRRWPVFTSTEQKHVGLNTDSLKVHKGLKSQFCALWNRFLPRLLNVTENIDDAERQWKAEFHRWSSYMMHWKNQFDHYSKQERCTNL

“1-Hydroxyquinopimaric acid [Compound U-201]”: the “Inhibition mechanism” value in series [1] (Lineweaver-Burk analysis) is given as “Competitive”.
As for `C=CCNC(=O)N1C[C@H]2C[C@H](C1)c1cccc(=O)n1C2` [Compound A-63, N-Allylcytisine-12-carbamide], the “Mortality of A. salina” value with Artemia salina [2] (at 1000 ppm) and with Artemia salina [2] (at 2000 ppm) was 3% each time. Besides, the “Toxicity classification according to Artemia salina test” value in the series with Artemia salina [2] (class by percent mortality of nauplii) is “non-toxic (0–10% non-toxic compound)”. For the same compound, the “Effect on A. salina viability” value in the series on Artemia salina [2] (concentration less than 1000 ppm) was “did not affect”; with Artemia salina [2] (concentration less than 2000 ppm), “not affected”. Moreover, the “Inhibition mechanism” value in series [1] (Lineweaver-Burk analysis) is “mixed”; in series [1] (Lineweaver-Burk analysis, listed as A63) it was “Mixed inhibition”. Besides, the IC50 in series [1] (30 °C, pH 8.0, 1.25% DMSO) was ~1.47 mM and 1.47 mM; in series [1] (expressed in g L^−1), “≈ 0.4 g L^−1”; in series [1] (expressed in ppm) it was 400 ppm. Moreover, the “α´ (effect on Vmax)” value in series [1] (mixed inhibition parameter) is recorded as 0.05.
As to `O=c1cccc2n1CC1CC2CN(C(=S)NC23CC4CC(CC(C4)C2)C3)C1` (centres unmarked) [Compound U-12, N-1-Adamantylcytisine-12-thiocarbamide], the “Inhibition mechanism” value in series [1] (Lineweaver-Burk analysis) was “Uncompetitive”. Further, the IC50 is ~3.39 mM and 3.39 mM in series [1] (30 °C, pH 8.0, 1.25% DMSO); “≈ 1.4 g L^−1” in series [1] (expressed in g L^−1); 1400 ppm in series [1] (expressed in ppm). The Ki in series [1] (read-out: Ki (inhibition constant), Lineweaver-Burk analysis) is 70 µM.
For the compound `CNC(=O)Oc1ccc2c(c1)[C@]1(C)CCN(C)[C@@H]1N2C` [Eserine], in the series with Artemia salina [3], the Effect on larvae result is “larval paralysis” and the “Inhibition of AChE activity in Artemia salina” value is “strongly inhibit”.
With `C[n+]1c2ccccc2cc2ccccc21` [N-methylacridinium], the Inhibition mechanism entry in the series on AChE [4] is listed as “competitive”.
For `C=C(C)C1CC=C(C)C(=O)C1` (centres unmarked) [S-carvone], the Inhibition mechanism entry with AChE [5] is reported as “mixed AChE inhibition”.
For `CC12CCC(CC1=O)C2(C)C` (centres unmarked) [camphor], in the series with AChE [5], the Inhibition mechanism entry is “mixed AChE inhibition”.
For the compound `CC[N+](C)(C)c1cccc(O)c1` [edrophonium], the Inhibition mechanism result with AChE [4] is reported as “competitive”.
With `C=CCc1ccc(OC)cc1` [estragole], the Inhibition mechanism result in the series with AChE [5] was “mixed AChE inhibition”.
`COc1ccc2c3c1O[C@H]1C[C@@H](O)C=C[C@@]31CCN(C)C2` [galanthamine]: in the series with AChE [6], the Inhibition mechanism result is “competitive”.
As for Cytisine-12-carbamide [Compound A-36], in series [1] (Lineweaver-Burk analysis), the “Inhibition mechanism” value is on record as “Competitive”.

Values taken from publication PMC6718946 (Toxicology Reports, 2019).
